Results as given in publication PMC8151276, “An Integrated Approach toward NanoBRET Tracers for Analysis of GPCR Ligand Engagement” (Molecules, 2021).

Columns and labels:
NPY1R = biological target: T1, NPY1R (Homo sapiens, UniProt P25929); assay: NanoBRET screen HiBiT-NPY1R in HEK293; assay type: binding
T1 construct: purchased Promega (in-house HiBiT-GPCR construct library, NanoBRET)
T1 sequence (P25929 1-384): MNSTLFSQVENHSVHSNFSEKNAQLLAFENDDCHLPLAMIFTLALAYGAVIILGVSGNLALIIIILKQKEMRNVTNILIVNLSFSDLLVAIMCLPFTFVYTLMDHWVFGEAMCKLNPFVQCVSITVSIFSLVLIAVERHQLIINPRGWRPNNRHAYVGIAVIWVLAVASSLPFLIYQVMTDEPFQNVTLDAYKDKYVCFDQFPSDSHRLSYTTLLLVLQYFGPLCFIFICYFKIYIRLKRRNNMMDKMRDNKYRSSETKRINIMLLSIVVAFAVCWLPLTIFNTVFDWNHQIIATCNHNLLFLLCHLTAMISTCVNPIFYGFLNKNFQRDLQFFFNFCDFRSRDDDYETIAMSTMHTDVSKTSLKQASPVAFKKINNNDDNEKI
Protocol: (§1) Each tracer candidate was screened across the entire library of HiBiT-GPCR constructs using NanoBRET as the detection modality. As depicted in Figure 4A, the specificity of interactions was evaluated through decrease in BRET due to competitive displacement of a bound tracer by excess parental compound. Each tracer was analyzed for binding to each HiBiT-GPCR fusion in the absence and in the presence of competing parental compound. Briefly, HEK293 cells were transfected with HiBiT-GPCR constructs diluted into promoterless DNA to reduce expression and maximize translocation to the cell surface. Each tracer candidate was then screened at concentrations of 1 μM and 0.1 μM across cells expressing these fusions. Cells were treated for 1.5 h with tracer either alone or in the presence of 20 μM competing parental compound (i.e., control). BRET was measured upon addition of purified LgBiT and subsequent complementation with HiBiT genetically fused to a GPCR. The specificity of interactions was assessed through a decrease in BRET signal due to competitive displacement of the bound tracer. To further gauge the robustness of these interactions, the fold response over the control (i.e., BRETtracer/BRETcontrol) was calculated. We chose a 1.5-fold response, which translates to ≥7-fold signal over noise as the minimal threshold required to score an interaction as positive. […]. Below we highlight the screening results obtained for our exemplary fluorescent tracers based on Clozapine, Amitriptyline and AZD1283.
(§2) HiBiT-GPCR DNA constructs were diluted in 10 mM Tris pH 8 to a final concentration of 0.01 μg/μL, arrayed in 96-well plates and stored at −20 °C. For transfection, HEK293 cells were suspended in Opti-MEM (without phenol red) supplemented with 2% fetal bovine serum (Seradigm) and 100 units/mL penicillin–streptomycin (Gibco) at a final concentration of 220,000 cells/mL and dispensed into white 96-well plates at 90 μL/well. Subsequent transfections and screens were carried using an Agilent Bravo Automated Liquid Handling Platform. First, the 96-well HiBiT DNA arrays were diluted 25-fold in Opti-MEM (without serum or phenol red) to a final concentration of 0.0004 μg/μL and 20 μL of the diluted DNAs were transferred into new 96-well plates. Next, promoterless carrier DNA (1 μg/μL) was diluted 25-fold (0.04 μg/μL) and then dispensed into the diluted arrays at 20 μL/well. Following brief mixing, Viafect transfection reagent (Promega) diluted 16-fold into Opti-MEM was dispensed into the plates at 40 μL/well. After mixing by pipetting, plates were incubated for 10 min on the pipetting station deck. The DNA-transfection reagent complexes were then added to plates containing cells. To facilitate the screen, 10 μL of DNA-transfection reagent complexes were added in duplicates to the top 4 and bottom 4 rows, resulting in two identical 48-well arrays per plate. Plates with transfected cells were incubated for 18–20 h at 37 °C/5% CO2. A screen of each tracer across the entire library using two different concentrations requires duplicate plates of transfected cells. Depending on the number of tracers being screened, transfections can be scaled up using the same ratios. The next day, for each tracer, four 20× screening solutions in tracer dilution buffer (Promega) were prepared: two duplicates at final concentration of 20 μM and two duplicates at a final concentration of 2 μM. A competing unmodified compound was added to one of each duplicate at a final concentration of 400 μM. The four resulting solutions were diluted 4-fold in Opti-MEM without serum or phenol red to generate 5× solutions (5 µM and 0.5 µM tracer +/− 100 μM competing compound). To screen the library, a BioTek MultiFlo FX liquid dispenser was used to dispense 22.5 µL of tracer solution to the top 4 rows and 22.5 µL tracer + competing compound solution to the 4 bottom rows. Plates were briefly mixed on an orbital shaker and incubated for 1.5 h at room temperature. […]

LGR6 = biological target: T2, LGR6 (Homo sapiens, UniProt Q9HBX8); assay: NanoBRET screen HiBiT-LGR6 in HEK293; assay type: binding
T2 construct: purchased Promega (in-house HiBiT-GPCR construct library, NanoBRET)
T2 sequence (Q9HBX8 25-967): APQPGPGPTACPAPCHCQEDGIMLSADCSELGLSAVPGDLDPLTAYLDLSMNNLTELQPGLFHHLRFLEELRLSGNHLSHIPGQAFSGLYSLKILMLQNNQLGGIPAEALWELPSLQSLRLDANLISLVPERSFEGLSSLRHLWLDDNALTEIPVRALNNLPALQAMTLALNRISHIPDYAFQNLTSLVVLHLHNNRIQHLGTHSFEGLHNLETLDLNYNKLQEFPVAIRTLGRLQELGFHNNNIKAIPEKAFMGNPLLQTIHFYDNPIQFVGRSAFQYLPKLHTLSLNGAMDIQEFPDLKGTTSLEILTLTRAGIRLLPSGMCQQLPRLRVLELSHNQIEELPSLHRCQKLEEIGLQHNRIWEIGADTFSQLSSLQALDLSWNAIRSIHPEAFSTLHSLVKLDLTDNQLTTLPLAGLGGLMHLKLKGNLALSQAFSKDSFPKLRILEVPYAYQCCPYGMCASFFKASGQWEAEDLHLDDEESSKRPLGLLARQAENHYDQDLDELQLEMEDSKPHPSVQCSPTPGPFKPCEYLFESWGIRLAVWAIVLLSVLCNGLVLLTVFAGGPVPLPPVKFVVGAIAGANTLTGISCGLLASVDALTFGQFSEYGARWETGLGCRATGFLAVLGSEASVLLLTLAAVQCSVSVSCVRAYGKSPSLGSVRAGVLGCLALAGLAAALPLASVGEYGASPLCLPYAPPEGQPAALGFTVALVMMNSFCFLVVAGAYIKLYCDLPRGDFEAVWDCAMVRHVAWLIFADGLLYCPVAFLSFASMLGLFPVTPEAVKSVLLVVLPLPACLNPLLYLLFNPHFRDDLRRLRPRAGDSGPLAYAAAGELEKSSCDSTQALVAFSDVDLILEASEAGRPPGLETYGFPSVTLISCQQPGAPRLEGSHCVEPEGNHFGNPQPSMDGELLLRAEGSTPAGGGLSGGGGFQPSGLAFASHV
Protocol: as §1, §2

[1] = tracer at 0.1μM, listed as amitriptyline-b-2-NB590
[2] = tracer at 1μM, listed as amitriptyline-b-2-NB590

| SMILES | NanoBRET Fold Response (NPY1R; NPY1R, tracer 0.1μM) | NanoBRET Fold Response (NPY1R; NPY1R, tracer 1μM) | NanoBRET Fold Response (LGR6; LGR6, tracer 0.1μM) | NanoBRET Fold Response (LGR6; LGR6, tracer 1μM) | also measured |
| --- | --- | --- | --- | --- | --- |
| CC(C)N(CC[C@H](c1ccccc1)c1cc(CCNC(=O)c2ccc(CNC(=O)CCc3ccc4n3[B-](F)(F)[N+]3=C(c5ccc[nH]5)C=CC3=C4)cc2)ccc1O)C(C)C [Tolterodine-BZ-NB590] | 1.15 | 0.95 | 1.31 | 0.94 |  |
| O=C(CCc1ccc2n1[B-](F)(F)[N+]1=C(c3ccc[nH]3)C=CC1=C2)NCCOCCOCCNC(=O)OCCOCCN1CCN(C2=Nc3ccccc3Sc3ccccc32)CC1 [Quetiapine-a-2-NB590] | 1.03 | 0.71 | 0.93 | 0.96 |  |
| Cc1cc2c(s1)Nc1ccccc1N=C2N1CCN(CCCNC(=O)CCOCCOCCOCCOCCNC(=O)CCc2ccc3n2[B-](F)(F)[N+]2=C(c4ccc[nH]4)C=CC2=C3)CC1 [Olanzapine-a-2-NB590] | 1.02 | 1.02 | 1.09 | 1.22 |  |
| CN(C)CCC=C1c2ccccc2CCc2ccc(C(=O)NCCNC(=O)CCOCCOCCOCCOCCNC(=O)CCc3ccc4n3[B-](F)(F)[N+]3=C(c5ccc[nH]5)C=CC3=C4)cc21 [Amitriptyline-b-2-NB590] |  |  |  |  | NanoBRET Fold Response (NPY1R; [1]): 0.90; NanoBRET Fold Response (NPY1R; [2]): 1.11; NanoBRET Fold Response (LGR6; [1]): 0.92; NanoBRET Fold Response (LGR6; [2]): 1.14 |
| O=C(CCOCCOCCOCCOCCNC(=O)CCc1ccc2n1[B-](F)(F)[N+]1=C(c3ccc[nH]3)C=CC1=C2)NCCCN1CCN(C2=Nc3cc(Cl)ccc3Nc3ccccc32)CC1 [Clozapine-a-2-NB590] |  |  |  |  | NanoBRET Fold Response (NPY1R; NPY1R, 0.1μM tracer): 0.97; NanoBRET Fold Response (NPY1R; NPY1R, 1μM tracer): 1.23; NanoBRET Fold Response (LGR6; LGR6, 0.1μM tracer): 1.03; NanoBRET Fold Response (LGR6; LGR6, 1μM tracer): 0.66 |
| CN1CCN(C2=Nc3cc(Cl)ccc3Nc3ccc(CNC(=O)CCOCCOCCOCCOCCNC(=O)CCc4ccc5n4[B-](F)(F)[N+]4=C(c6ccc[nH]6)C=CC4=C5)cc32)CC1 [Clozapine-b-2-NB590] |  |  |  |  | NanoBRET Fold Response (NPY1R; NPY1R, 0.1μM tracer): 1.00; NanoBRET Fold Response (NPY1R; NPY1R, 1μM tracer): 1.03; NanoBRET Fold Response (LGR6; LGR6, 0.1μM tracer): 1.31; NanoBRET Fold Response (LGR6; LGR6, 1μM tracer): 0.89 |
| Cc1nc2n(c(=O)c1CCN1CCC(c3noc4cc(F)ccc34)CC1)CCCC2OC(=O)NCCOCCOCCOCCOCCNC(=O)CCc1ccc2n1[B-](F)(F)[N+]1=C(c3ccc[nH]3)C=CC1=C2 (stereo not shown) [Risperidone-2-NB590] | 0.88 | 0.99 | 1.04 | 1.02 |  |
